Values after ≈ are worked out from the molar mass of the structure shown.
tested on: Staphylococcus aureus; experiment: Antibacterial activity against Staphylococcus aureus; assay type: functional

| SMILES | MIC [µg/mL] |
| --- | --- |
| CC(=O)C1=C(O)S/C(=C\c2ccc(F)cc2)C1=O | > 200 |
| CC(=O)C1=C(O)S/C(=C\c2cccs2)C1=O | > 200 |
| CC(=O)C1=C(O)S/C(=C\c2ccccn2)C1=O | > 200 |
| CC1=C(O)S[C@](C)(/C=C(\C)CO)C1=O | > 100 |
| CC(=O)C1=C(O)SC(C/C=C(\C)CC/C=C(\C)CCC=C(C)C)C1=O (stereo not given) | 1.56 (≈ 4.3 µM) |
| C=C/C(C)=C\[C@@]1(C)SC(O)=C(C)C1=O | > 100 |
| CC(=O)C1=C(O)S/C(=C\N(C)C)C1=O | > 200 |
| CC(=O)C1=C(O)S/C(=C\c2ccc(C(F)(F)F)cc2)C1=O | 3.13 (≈ 9.96 µM) |
| CCCCCC(=O)/C=C/C(C)=C/[C@@]1(C)SC(O)=C(C)C1=O | > 100 |
| CC(=O)C1=C(O)SCC1=O | > 200 |
| CC1=C(O)S[C@](C)(/C=C(C)/C=N/OCc2ccccc2)C1=O | > 100 |
| CC1=C(O)S[C@](C)(/C=C(\C)C#N)C1=O | > 100 |
| CC1=C(O)S[C@](C)(/C=C(C)/C=C/C#N)C1=O | > 100 |
| CC(=O)OC1=C(C)C(=O)S[C@]1(C)/C=C(\C)C=O | > 100 |
| CC(=O)C1=C(O)S/C(=C\c2ccc3c(c2)OCO3)C1=O | > 200 |
| CC1=C(O)S[C@](C)(/C=C(\C)C=C(Br)Br)C1=O | > 100 |
| CC(=O)C1=C(O)S/C(=C\c2ccccc2)C1=O | > 200 |
| CC(=O)C1=C(O)S/C(=C\c2cccc(Oc3ccc(Cl)c(Cl)c3)c2)C1=O | 1.56 (≈ 3.83 µM) |
| CC(=O)C1=C(O)S/C(=C\c2cccc(Oc3cccc(C(F)(F)F)c3)c2)C1=O | 0.78 (≈ 1.92 µM) |
| CC(=O)C1=C(O)C(C)(Cc2ccc(F)cc2)SC1=O (stereo not given) | > 200 |

| SMILES | MIC [µg/mL] |
| --- | --- |
| CC(=O)C1=C(O)S/C(=C\c2cccc(F)c2)C1=O | 50 (≈ 189 µM) |
| CC(=O)C1=C(O)S/C(=C\c2ccc(C#N)cc2)C1=O | 3.13 (≈ 11.5 µM) |
| CC(=O)C1=C(O)S/C(=C\c2ccc(Cl)cc2Cl)C1=O | 3.13 (≈ 9.93 µM) |
| CC(=O)C1=C(O)SC(C)C1=O (stereo not given) | 50 (≈ 290 µM) |
| CCOC(=O)/C=C/C=C/C(C)=C/[C@@]1(C)SC(O)=C(C)C1=O | > 100 |
| CC(=O)C1=C(O)SC(C)(C/C=C(/C)CCC=C(C)C)C1=O (stereo not given) | > 200 |
| CCCNC/C(C)=C/[C@@]1(C)SC(O)=C(C)C1=O | > 100 |
| CC(=O)C1=C(O)SC(COC(=O)Cc2ccccc2)C1=O (stereo not given) | 3.13 (≈ 10.2 µM) |
| CC(=O)C1=C(O)SC(Cc2cccc(C(F)(F)F)c2)C1=O (stereo not given) | 3.13 (≈ 9.9 µM) |
| CC(=O)C1=C(O)C(C)(C/C=C/c2ccccc2)SC1=O (stereo not given) | 3.13 (≈ 10.9 µM) |
| CC(=O)C1=C(O)SC(C)(C/C=C(\C)CC/C=C(\C)CCC=C(C)C)C1=O (stereo not given) | > 200 |
| CC(=O)C1=C(O)S/C(=C\c2cccc(OCc3ccccc3)c2)C1=O | 3.13 (≈ 8.88 µM) |
| CC(=O)C1=C(O)SC(C/C=C/c2ccccc2)C1=O (stereo not given) | 3.13 (≈ 11.4 µM) |
| CC(=O)C1=C(O)SC(C/C=C(/C)CC/C=C(\C)CCC=C(C)C)(C/C=C(/C)CC/C=C(\C)CCC=C(C)C)C1=O | > 200 |
| CC(=O)C1=C(O)SC(CCC(C)CCCC(C)C)C1=O (stereo not given) | 0.78 (≈ 2.61 µM) |
| CC(=O)C1=C(O)S/C(=C\c2ccc(O)cc2)C1=O | > 200 |
| CC1=C(O)S[C@](C)(/C=C(C)/C=C/c2ccccc2)C1=O | > 100 |
| C=C/C(C)=C/[C@@]1(C)SC(=O)C(C)=C1OC(C)=O | > 100 |
| CC(=O)/C=C/C(C)=C/[C@@]1(C)SC(O)=C(C)C1=O | > 100 |
| CCOC(=O)/C=C/C(C)=C/[C@@]1(C)SC(O)=C(C)C1=O | > 100 |

tested on: Pasteurella multocida; experiment: Antibacterial activity against Pasteurella multocida; assay type: functional

| SMILES | MIC [µg/mL] |
| --- | --- |
| CC(=O)C1=C(O)S/C(=C\c2ccc(F)cc2)C1=O | 3.13 (≈ 11.8 µM) |
| CC(=O)C1=C(O)S/C(=C\c2cccs2)C1=O | 1.56 (≈ 6.18 µM) |
| CC(=O)C1=C(O)S/C(=C\c2ccccn2)C1=O | 100 (≈ 404 µM) |
| CC1=C(O)S[C@](C)(/C=C(\C)CO)C1=O | > 100 |
| CC(=O)C1=C(O)SC(C/C=C(\C)CC/C=C(\C)CCC=C(C)C)C1=O (stereo not given) | 0.2 (≈ 0.552 µM) |
| C=C/C(C)=C\[C@@]1(C)SC(O)=C(C)C1=O | 0.2 (≈ 0.951 µM) |
| CC(=O)C1=C(O)S/C(=C\N(C)C)C1=O | > 200 |
| CC(=O)C1=C(O)S/C(=C\c2ccc(C(F)(F)F)cc2)C1=O | 3.13 (≈ 9.96 µM) |
| CCCCCC(=O)/C=C/C(C)=C/[C@@]1(C)SC(O)=C(C)C1=O | > 100 |
| CC(=O)C1=C(O)SCC1=O | > 200 |
| CC1=C(O)S[C@](C)(/C=C(C)/C=N/OCc2ccccc2)C1=O | > 100 |
| CC1=C(O)S[C@](C)(/C=C(\C)C#N)C1=O | > 100 |
| CC1=C(O)S[C@](C)(/C=C(C)/C=C/C#N)C1=O | > 100 |
| CC(=O)OC1=C(C)C(=O)S[C@]1(C)/C=C(\C)C=O | > 100 |
| CC(=O)C1=C(O)S/C(=C\c2ccc3c(c2)OCO3)C1=O | > 200 |
| CC1=C(O)S[C@](C)(/C=C(\C)C=C(Br)Br)C1=O | > 100 |
| CC(=O)C1=C(O)S/C(=C\c2ccccc2)C1=O | > 200 |
| CC(=O)C1=C(O)S/C(=C\c2cccc(Oc3ccc(Cl)c(Cl)c3)c2)C1=O | 0.2 (≈ 0.491 µM) |
| CC(=O)C1=C(O)S/C(=C\c2cccc(Oc3cccc(C(F)(F)F)c3)c2)C1=O | 3.13 (≈ 7.7 µM) |
| CC(=O)C1=C(O)C(C)(Cc2ccc(F)cc2)SC1=O (stereo not given) | > 200 |

| SMILES | MIC [µg/mL] |
| --- | --- |
| CC(=O)C1=C(O)S/C(=C\c2cccc(F)c2)C1=O | 6.25 (≈ 23.6 µM) |
| CC(=O)C1=C(O)S/C(=C\c2ccc(C#N)cc2)C1=O | > 200 |
| CC(=O)C1=C(O)S/C(=C\c2ccc(Cl)cc2Cl)C1=O | 3.13 (≈ 9.93 µM) |
| CC(=O)C1=C(O)SC(C)C1=O (stereo not given) | 6.25 (≈ 36.3 µM) |
| CCOC(=O)/C=C/C=C/C(C)=C/[C@@]1(C)SC(O)=C(C)C1=O | > 100 |
| CC(=O)C1=C(O)SC(C)(C/C=C(/C)CCC=C(C)C)C1=O (stereo not given) | 100 (≈ 324 µM) |
| CCCNC/C(C)=C/[C@@]1(C)SC(O)=C(C)C1=O | > 100 |
| CC(=O)C1=C(O)SC(COC(=O)Cc2ccccc2)C1=O (stereo not given) | > 200 |
| CC(=O)C1=C(O)SC(Cc2cccc(C(F)(F)F)c2)C1=O (stereo not given) | 3.13 (≈ 9.9 µM) |
| CC(=O)C1=C(O)C(C)(C/C=C/c2ccccc2)SC1=O (stereo not given) | > 200 |
| CC(=O)C1=C(O)SC(C)(C/C=C(\C)CC/C=C(\C)CCC=C(C)C)C1=O (stereo not given) | 1.56 (≈ 4.14 µM) |
| CC(=O)C1=C(O)S/C(=C\c2cccc(OCc3ccccc3)c2)C1=O | > 200 |
| CC(=O)C1=C(O)SC(C/C=C/c2ccccc2)C1=O (stereo not given) | 3.13 (≈ 11.4 µM) |
| CC(=O)C1=C(O)SC(C/C=C(/C)CC/C=C(\C)CCC=C(C)C)(C/C=C(/C)CC/C=C(\C)CCC=C(C)C)C1=O | > 200 |
| CC(=O)C1=C(O)SC(CCC(C)CCCC(C)C)C1=O (stereo not given) | 3.13 (≈ 10.5 µM) |
| CC(=O)C1=C(O)S/C(=C\c2ccc(O)cc2)C1=O | > 200 |
| CC1=C(O)S[C@](C)(/C=C(C)/C=C/c2ccccc2)C1=O | > 100 |
| C=C/C(C)=C/[C@@]1(C)SC(=O)C(C)=C1OC(C)=O | > 100 |
| CC(=O)/C=C/C(C)=C/[C@@]1(C)SC(O)=C(C)C1=O | > 100 |
| CCOC(=O)/C=C/C(C)=C/[C@@]1(C)SC(O)=C(C)C1=O | > 100 |
